# Experimental data taken from patent US10364256B2 (GlaxoSmithKline Intellectual Property Development Limited, priority 2015, dated 2019).
# Where two headings read alike, the source gives them in different places.
# Assays:
# [1] = test system: NQO1 specific enzyme activity in BEAS-2B cells (marker for NRF2 activation); experiment: BEAS-2B NQO1 MTT Assay; format: cell-based; details: Homo sapiens
# In short: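 NQO1 specific activity induction is derived from the rate of MTT reduction (ΔOD/min, 570 nm, 30 min kinetic read) in crude lysates of BEAS-2B cells exposed to compound for 48 h. A 3-parameter fit gives EC50, reported as pEC50; part of each lysate goes to Cell Titer Glo.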
# [2] = molecular target: T1, Keap1 Kelch domain (321-609) / TAMRA-labeled 16mer NRF2 peptide (ETGE motif) (Homo sapiens, UniProt Q14145); experiment: NRF2-Keap1 FP Assay (Keap1 Kelch fluorescence polarization); format: binding; details: 20 nM Keap1 (321-609), 8 nM Tamra labeled peptide
# T1 construct: the Kelch domain (321-609) of Keap1 is used
# In short: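 Compound dilutions (3-fold) were incubated 1 hr at room temperature with 20 nM Keap1 Kelch (321-609) and 8 nM TAMRA-labeled ETGE 16mer peptide. Buffer was 50 mM Tris pH 8.0, 100 mM NaCl, 5 mM MgCl2, 1 mM DTT, 2 mM CHAPS, 0.005% BSA. Fluorescence polarization (mP) was normalized to controls and fitted with a four-parameter equation to give pIC50.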
# [3] = molecular target: T2, full length Keap1 protein / full length NRF2 protein (Homo sapiens, UniProt Q14145); experiment: NRF2-Keap1 TR-FRET Assay; format: binding; details: 25 nM Keap1-FlagHis and 50 nM biotin-NRF2 added
# T2 construct: full length NRF2 protein and full length Keap1 protein (Keap1 exists a dimer) are used; His
# Excerpt: In the NRF2-Keap1 TR-FRET (time-resolved fluorescence resonance energy transfer) assay, full length NRF2 protein and full length Keap1 protein (Keap1 exists a dimer) are used. The assay detects the ability of compound to displace the binding of FlagHis-tagged Keap1 with biotinylated, Avi-tagged NRF2 protein. Biotin-NRF2 binds to streptavidin-europium (a component of the detection mix) and Keap1-FlagHis is recognized by anti-Flag APC (allophycocyanin) antibody (also a component of the detection mix). If binding occurs between the two proteins, there will be an energy transfer from the Eu+3 (donor) at 615 nm to the APC (acceptor) at 665 nm. A potential Keap1 inhibitor will cause a reduction in the TR-FRET signal by interfering with the binding of Keap1 to NRF2.
# One hundred nanoliters of 100× compound dose response curves (serial 3-fold dilutions) in DMSO are stamped using an Echo liquid handling system (Labcyte) into 384-well, low volume, black assay plates (Greiner, #784076), with DMSO in columns 6 and 18. The top concentration of compound is located in columns 1 and 13. All reagents are diluted in assay buffer (50 mM Tris, pH 8.0, 5 mM MgCl2, 100 mM NaCl, 0.005% BSA, 1 mM DTT, and 2 mM CHAPS). The BSA, DTT, and CHAPS are added to the assay buffer on the day of assay. Using a Multidrop Combi (Thermo Electron Corporation) equipped with a metal tip dispenser, 5 ul of 25 nM Keap1-FlagHis protein is added to all wells of the compound plate, with the exception of the wells in column 18. Wells in column 18 receive 5 ul of assay buffer instead. Plates are centrifuged at 500 rpm for 1 minute, covered with a plate lid, and incubated at 37° C. for 2.25 hours. Plates are then removed from the incubator and allowed to cool to RT for 15 minutes. Five microliters of 50 nM biotin-NRF2 protein is then added to all wells of the plates and the plates are spun at 500 rpm for 1 minute, followed by incubating at 4° C. for 1.25 hours. The plates are then allowed to warm to RT for 15 minutes, followed by the addition of 10 ul of detection mix (1 nM Streptavidin Eu+ W1024 and 5 ug/ml mouse anti-DYKDDDDK IgG conjugated to SureLight APC antibody; both from Columbia Biosciences) to all wells. Plates are spun at 500 rpm for 1 minute, incubated for 1 hour at RT, and read on an Envision plate reader using a 320 nm excitation filter and 615 nm and 665 nm emission filters. Compound response (% inhibition) and potency (pIC50) are calculated based on the ratio of the two emissions (665 nm/615 nm) and then the transformed data is normalized against controls in the assay (control 1=1% DMSO in the presence of NRF2 and Keap1 protein and control 2=1% DMSO in the absence of protein). Data analysis is handled using the software package Abase XE (Surrey, United Kingdom). The % inhibition values are calculated from the ratio (transformed) data by the equation: 100−(100*(compound response−average control 2)/(average control 1−average control2)). For calculation of pIC50s, Abase XE uses a four parameter equation. pIC50 is the negative log of the IC50.
# [4] = molecular target: T2, full length Keap1 protein / full length NRF2 protein; experiment: NRF2-Keap1 TR-FRET Low Protein Assay; format: binding; details: 1.25 nM Keap1 FlagHis and 2.5 nM biotin-NRF2 added
# In short: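 Flag-tagged full-length Keap1 was preincubated with compound (3-fold series) for 2.25 h at 37 °C in Tris pH 8.0/MgCl2/NaCl/BSA/DTT/CHAPS. Biotin-Avi-NRF2 (added at 2.5 nM) was then bound for 1.25 h at 4 °C. Eu-streptavidin/anti-Flag-APC TR-FRET (665/615 nm) was read after 1 h at RT, and pIC50 came from a four-parameter fit.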
# [5] = compound incubated 48 hours, read-out: EC50 (NQO1 specific enzyme activity induction)
# T2 sequence (Q14145 whole entry): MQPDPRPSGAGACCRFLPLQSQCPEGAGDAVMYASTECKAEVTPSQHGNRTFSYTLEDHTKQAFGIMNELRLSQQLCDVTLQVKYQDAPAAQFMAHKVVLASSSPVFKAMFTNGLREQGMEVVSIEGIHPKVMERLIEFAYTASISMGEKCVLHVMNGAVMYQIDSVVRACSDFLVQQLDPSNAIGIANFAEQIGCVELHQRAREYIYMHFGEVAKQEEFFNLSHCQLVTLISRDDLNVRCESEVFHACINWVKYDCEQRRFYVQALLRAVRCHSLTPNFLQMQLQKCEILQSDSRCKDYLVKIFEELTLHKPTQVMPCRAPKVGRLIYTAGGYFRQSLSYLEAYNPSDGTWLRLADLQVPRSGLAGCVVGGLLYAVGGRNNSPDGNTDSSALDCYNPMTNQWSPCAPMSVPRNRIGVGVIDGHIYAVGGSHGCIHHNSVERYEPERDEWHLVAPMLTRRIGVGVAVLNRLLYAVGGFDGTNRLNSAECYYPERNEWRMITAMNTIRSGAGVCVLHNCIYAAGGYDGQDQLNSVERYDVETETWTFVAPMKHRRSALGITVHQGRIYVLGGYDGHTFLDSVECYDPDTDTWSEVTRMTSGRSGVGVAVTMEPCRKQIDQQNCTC
# T1 sequence (Q14145 321-609): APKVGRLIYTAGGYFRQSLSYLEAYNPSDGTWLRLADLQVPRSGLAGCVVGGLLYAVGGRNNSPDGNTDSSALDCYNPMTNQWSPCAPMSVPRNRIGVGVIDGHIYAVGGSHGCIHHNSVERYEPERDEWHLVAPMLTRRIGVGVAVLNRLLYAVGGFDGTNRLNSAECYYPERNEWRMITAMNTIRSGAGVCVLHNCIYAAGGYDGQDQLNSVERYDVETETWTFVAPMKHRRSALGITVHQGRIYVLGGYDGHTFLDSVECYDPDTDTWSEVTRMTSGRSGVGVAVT
IC50 [2] [nM],IC50 [3] [nM],IC50 [4] [nM],Compound,"EC50 [1, 5] [nM]","EC50 ([1]; BEAS-2B, 48 h, compound incubated 48 hours, read-out: EC50 (NQO1 specific enzyme activity induction)) [nM]","EC50 ([1]; in two determinations (footnote ϕ), read-out: EC50 in two determinations) [nM]"
1000 to 10000,10000 to 100000,,"CC(=O)N[C@@H]1CC[C@H](c2c(C(=O)O)cnn2-c2cccc(-c3cccc(OC(C)C)c3F)c2)C1 (racemic) [Example 13, 5-[(cis)-3-Acetamidocyclopentyl]-1-{3-[2-fluoro-3-(propan-2-yloxy)phenyl]phenyl}-1H-pyrazole-4-carboxylic Acid]",1000 to 10000,,
100 to 1000,100 to 1000,,"Cn1cc([C@H]2C[C@@H]2c2c(C(=O)O)cnn2-c2cccc(-c3cccc(OCC(C)(C)C)c3)c2)nn1 (racemic) [Example 226, 5-((1,2-trans)-2-(1-Methyl-1H-1,2,3-triazol-4-yl)cyclopropyl)-1-(3′-(neopentyloxy)-[1,1′-biphenyl]-3-yl)-1H-pyrazole-4-carboxylic acid]",10 to 100,,
100 to 1000,1000 to 10000,,"Cn1cc([C@H]2C[C@@H]2c2c(C(=O)O)cnn2-c2cccc(-c3cccc(OCc4cncnc4)c3)c2)nn1 (racemic) [Example 236, 5-((1,2-trans)-2-(1-Methyl-1H-1,2,3-triazol-4-yl)cyclopropyl)-1-(3′-(pyrimidin-5-ylmethoxy)-[1,1′-bipheny1]-3-yl)-1H-pyrazole-4-carboxylic acid]",1000 to 10000,,
100 to 1000,1000 to 10000,,"Cn1cc([C@@H]2C[C@H]2c2c(C(=O)O)cnn2-c2cccc(-c3cccc(CN4CCCCC4)c3)c2)nn1 (racemic) [Example 247, 5-(trans-2-(1-Methyl-1H-1,2,3-triazol-4-yl)cyclopropyl)-1-(3′-(piperidin-1-ylmethyl)-[1,1′-biphenyl]-3-yl)-1H-pyrazole-4-carboxylic Acid]",1000 to 10000,,
100 to 1000,100 to 1000,,"Cn1cc([C@@H]2C[C@H]2c2c(C(=O)O)cnn2-c2cccc(-c3cccc(CN4CCOCC4)c3)c2)nn1 (racemic) [Example 248, 5-(trans-2-(1-Methyl-1H-1,2,3-triazol-4-yl)cyclopropyl)-1-(3′-(morpholinomethyl)-[1,1′-biphenyl]-3-yl)-1H-pyrazole-4-carboxylic Acid]",1000 to 10000,,
10 to 100,10 to 100,,CN(CC1CC1)C(=O)c1cccc(-c2cccc(-n3ncc(C(=O)O)c3[C@@H]3C[C@H]3c3cn(C)nn3)c2)c1F (racemic) [Example 265],1000 to 10000,,
10 to 100,,< 10,"C[C@H]1Cc2ccc(Br)cc2S(=O)(=O)N(Cc2cccc(-c3cccc(-n4ncc(C(=O)O)c4[C@@H]4C[C@H]4c4cn(C)nn4)c3)c2F)C1 [Example 131, 1-(3′-(((S)-8-Bromo-4-methyl-1,1-dioxido-4,5-dihydrobenzo[f][1,2]thiazepin-2(3H)-yl)methyl)-2′-fluoro-[1,1′-biphenyl]-3-yl)-5-((1R,2R)-2-(1-methyl-1H-1,2,3-triazol-4-yl)cyclopropyl)-1H-pyrazole-4-carboxylic acid]",100 to 1000,,
10 to 100,,< 10,"C[C@H]1Cc2ccccc2S(=O)(=O)N(Cc2cccc(-c3cccc(-n4ncc(C(=O)O)c4[C@@H]4C[C@H]4c4cn(C)nn4)c3)c2)C1 [Example 132, 1-(3′-(((S)-4-methyl-1,1-dioxido-4,5-dihydrobenzo[f][1,2]thiazepin-2(3H)-yl)methyl)-[1,1′-biphenyl]-3-yl)-5-((1R,2R)-2-(1-methyl-1H-1,2,3-triazol-4-yl)cyclopropyl)-1H-pyrazole-4-carboxylic acid]",100 to 1000,,
100 to 1000,,10 to 100,"C[C@H]1Cc2ccccc2S(=O)(=O)N(Cc2cccc(-c3cccc(-n4ncc(C(=O)O)c4[C@H]4C[C@@H]4c4cn(C)nn4)c3)c2)C1 [Example 133, 1-(3′-(((S)-4-methyl-1,1-dioxido-4,5-dihydrobenzo[f][1,2]thiazepin-2(3H)-yl)methyl)-[1,1′ biphenyl]-3-yl)-5-((1S,2S)-2-(1-methyl-1H-1,2,3-triazol-4-yl)cyclopropyl)-1H-pyrazole-4-carboxylic acid]",1000 to 10000,,
10 to 100,,< 10,"CCN1CCN(Cc2cccc(-c3cccc(-n4ncc(C(=O)O)c4[C@@H]4C[C@H]4c4cn(C)nn4)c3)c2)S(=O)(=O)c2ccccc21 [Example 139, 1-(3′-((5-Ethyl-1,1-dioxido-4,5-dihydrobenzo[f][1,2,5]thiadiazepin-2(3H)-yl)methyl)-[1,1′-biphenyl]-3-yl)-5-((1R, 2R)-2-(1-methyl-1H-1,2,3-triazol-4-yl)cyclopropyl)-1H-pyrazole-4-carboxylic acid]",1000 to 10000,,
100 to 1000,,10 to 100,"C[C@@H](Oc1cccc(-c2cccc(-n3ncc(C(=O)O)c3[C@@H]3C[C@H]3c3cn(C)nn3)c2)c1)C1CCCCC1 [Example 162, 1-(3′-((R)-1-Cyclohexylethoxy)-[1,1′-biphenyl]-3-yl)-5-((1R,2R)-2-(1-methyl-1H-1,2,3-triazol-4-yl)cyclopropyl)-1H-pyrazole-4-carboxylic Acid]",,10 to 100,
10 to 100,,10 to 100,"Cn1cc(C2CC2c2c(C(=O)O)cnn2-c2cccc(-c3cccc(OCCC4CCCCC4)c3)c2)nn1 (stereo not shown) [Example 170, 1-(3′-(2-Cyclohexylethoxy)-[1,1′-biphenyl]-3-yl)-5-(2-(1-methyl-1H-1,2,3-triazol-4-yl)cyclopropyl)-1H-pyrazole-4-carboxylic acid]",100 to 1000,,
100 to 1000,,100 to 1000,"CCn1cc([C@H]2C[C@@H]2c2c(C(=O)O)cnn2-c2cc(OC)cc(-c3cccc(OC(C)C4CCCCC4)c3)c2)nn1 (stereo partly drawn) [Example 193, 1-(3′-(1-cyclohexylethoxy)-5-methoxy-[1,1′-biphenyl]-3-yl)-5-((1S,2S)-2-(1-ethyl-1H-1,2,3-triazol-4-yl)cyclopropyl)-1H-pyrazole-4-carboxylic acid]",100 to 1000,,
10 to 100,,< 10,"CC[C@@H]1CN(Cc2cccc(-c3cccc(-n4ncc(C(=O)O)c4[C@@H]4C[C@H]4c4cn(C)nn4)c3)c2)S(=O)(=O)c2ccccc2O1 [Example 255, 1-(3′-(((R)-4-Ethyl-1,1-dioxido-3,4-dihydro-2H-benzo[b][1,4,5]oxathiazepin-2-yl)methyl)-[1,1′-biphenyl]-3-yl)-5-(trans-2-(1-methyl-1H-1,2,3-triazol-4-yl)cyclopropyl)-1H-pyrazole-4-carboxylic Acid]",100 to 1000,,> 1000
10 to 100,,< 10,CC[C@@H]1CN(C(=O)c2cccc(-c3cccc(-n4ncc(C(=O)O)c4[C@@H]4C[C@H]4c4cn(C)nn4)c3)c2)Cc2ccccc2O1 [Example 257],1000 to 10000,,
